Test results reported in patent US9775832B2, “Pharmaceutical composition for oral administration” (ASTELLAS PHARMA INC., priority 2014, dated 2017).
Values after ≈ are worked out from the molar mass of the structure shown.

How the values were obtained:
[1] = physchem; conditions: thermodynamic from solid
[2] = Measurement of solubility (Experimental Example 3); type: physicochemical; conditions: Phosphate buffer, room temperature, shaken 120 minutes
From the text: The improved solubility of compound A by amorphization was observed.

[3] = Oral absorption test in dog (Experimental Example 6); type: in vivo; conditions: 50 mg of compound A
Protocol: The dogs were made to fast from the evening on the day before the administration (before more than 16 hours from the scheduled administration time) to the final blood collection on the day of the administration (24 hours after the administration). After the end of the final blood collection, food was given in accordance with the feeding amount of the breeding facility (the fasting period was from 24 hours or more to less than 48 hours). Water was not given during a time period from 30 minutes before the administration to 2 hours after the administration, and then, it was free to drink water.

[4] = Measurement of related substances by HPLC after storage in glass bottles (Experimental Example 4); type: physicochemical
Protocol: The solid dispersion of Example 1 and the amorphous form of compound A of Example 2 were put into glass bottles, and the bottles were allowed to stand under the predetermined conditions, after being sealed or without being sealed, and the amount of each related substance of compound A was measured by an HPLC method.
The measurement of related substances was carried out in accordance with the following conditions (the following tests for related substances were carried out in a similar fashion.): • As a HPLC column, Unison UK-Phenyl (particle size=3 μm, 4.6 mm (inner diameter)×25 cm, manufactured by Imtakt), or its equivalent, was used, and maintained at 40° C. • As mobile phase A, a mixed solution (4:1) of a perchlorate solution (pH 4.0) and methanol was used. • As mobile phase B, acetonitrile was used. • Sample solutions were prepared by diluting samples with a mixed solution of mobile phase A/mobile phase B (7:3) so that the concentration of compound A became 250 μg/mL. • Related substances were measured using an ultraviolet absorption spectrophotometer (wavelength: 225 nm), in accordance with the gradient program shown in Table 3 below, and at a flow rate in which the retention time of compound A was about 26 minutes. The percentage of the peak area of each related substance was calculated, as a percentage with respect to the total peak area of compound A and its related substances.

[5] = Powder X-ray diffraction test, crystallinity before and after storage (Experimental Example 5); type: physicochemical; conditions: at least 70° C. for 9 days, or 40° C., 75% RH for 1 month; FIG. 2
Protocol: The amorphous form of compound A of Example 2 was put into glass bottles, and the bottles were sealed and allowed to stand under the predetermined conditions, and the crystallinity before and after storage was evaluated using a powder X-ray diffraction method. In “40° C., 75% RH for 1 month (opened)”, the storage was carried out under the conditions where the bottle was not sealed.

[6] = glass bottle not sealed (*), 40° C., 75% RH for 1 month
[7] = glass bottle, sealed, 25° C., 60% RH for 1 month
[8] = glass bottle, sealed, 40° C., 75% RH for 1 month
[9] = glass bottle, sealed, 70° C. for 9 days

Work on `C[C@@H](O)C(=N)NS(=O)(=O)c1cc(C(=O)C(C(=O)c2cc(F)ccc2F)=C2Nc3ccccc3N2)ccc1F` [Compound A, (2R)—N-({5-[3-(2,5-difluorophenyl)-2-(1,3-dihydro-2H-benzimidazole-2-ylidene)-3-oxopropanoyl]-2-fluorophenyl}sulfonyl)-2-hydroxypropane imide amide] yielded a Solubility ([1]; pH 1.2, simulated gastric fluid) of roughly 9.9 µg/mL (≈ 18.2 µM), a Solubility ([1]; pH 6.8, aqueous buffer) of roughly 9.8 µg/mL (≈ 18 µM) and a Solubility ([2]; pH 6.8, 0.10% Sodium lauryl sulfate, listed as Compound A in crystalline state) of 69 µg/mL (≈ 127 µM). The Solubility ([2]; pH 6.8, listed as Compound A in crystalline state) was 15 µg/mL (≈ 27.5 µM).

In the case of `C[C@@H](O)C(=N)NS(=O)(=O)c1cc(C(=O)C(C(=O)c2cc(F)ccc2F)=C2Nc3ccccc3N2)ccc1F` [Example 2, (2R)—N-({5-[3-(2,5-difluorophenyl)-2-(1,3-dihydro-2H-benzimidazole-2-ylidene)-3-oxopropanoyl]-2-fluorophenyl}sulfonyl)-2-hydroxypropane imide amide], the Solubility ([2]; pH 6.8, 0.10% Sodium lauryl sulfate, listed as Ex. 2) is reported as 326 µg/mL (≈ 599 µM), the Solubility ([2]; pH 6.8, listed as Ex. 2) is reported as 75 µg/mL (≈ 138 µM) and the “AUC0-24 h ratio to the suspension of Example 2” value [3] is reported as 1.00. For the same compound, the “Cmax ratio to the suspension of Example 2” value [3] was 1.00, the oral absorbability [3] was “good oral absorbability” and the Cmax ([3]; plasma, suspension in 0.5% methylcellulose) was 793 ± 165 ng/mL. For the same compound, the AUC(0-t) ([3]; plasma, suspension in 0.5% methylcellulose, read-out: AUC0-24 hr) was 4920 ± 1220 ng·h/mL, the Maximum related substance ([4]; At the beginning of storage) was 0.80% and the “Total amount of related substances” value ([4]; At the beginning of storage) was 0.88%. The “significant increase in related substances” value ([4]; at least 70° C. for 9 days, 40° C., 75% RH for 1 month, or 25° C., 60% RH for 1 month) was “not observed”, the Maximum related substance [4, 6] was 0.77% and the “Maximum related substance, increased amount from the beginning of the storage” value [4, 6] was “(−0.03) %”. The “Total amount of related substances” value [4, 6] was 0.98%, the “Total amount of related substances, increased amount from the beginning of the storage” value [4, 6] was “(0.10) %” and the Maximum related substance [4, 7] was 0.79%. The “Maximum related substance, increased amount from the beginning of the storage” value [4, 7] was “(−0.01) %”, the “Total amount of related substances” value [4, 7] was 0.99% and the “Total amount of related substances, increased amount from the beginning of the storage” value [4, 7] was “(0.11) %”. The Maximum related substance [4, 8] was 0.79%, the “Maximum related substance, increased amount from the beginning of the storage” value [4, 8] was “(−0.01) %” and the “Total amount of related substances” value [4, 8] was 0.99%. For the same compound, the “Total amount of related substances, increased amount from the beginning of the storage” value [4, 8] was “(0.11) %”, the Maximum related substance [4, 9] was 0.82% and the “Maximum related substance, increased amount from the beginning of the storage” value [4, 9] was “(0.02) %”. For the same compound, the “Total amount of related substances” value [4, 9] was 0.85%, the “Total amount of related substances, increased amount from the beginning of the storage” value [4, 9] was “(−0.03) %” and the “crystallinity after storage (powder X-ray diffraction)” value [5] was “maintained the amorphous state alone”.
